Laboratory results reported in ChEMBL document CHEMBL1201862, “PubChem BioAssay data set” (2004).
Calls of active or inactive are those of the source.

How the values were obtained:
[1] = target: Beta-2 adrenergic receptor (Homo sapiens, UniProt P07550); assay: beta2AR agonists driving receptor internalization, dose response, cell-based, FAP fluorogen, flow cytometry, cherry pick 1 (AID 588763); assay type: functional
[2] = tested on: Streptococcus sp. 'group A'; assay: growth inhibition of control SK(-) GAS strain, dose response, counter-screen for streptokinase expression inhibitor project, luminescence, kanamycin, BacTiterGlo, confirmation (AID 1900); assay type: functional, organism-based
[3] = tested on: Streptococcus; assay: Group A Streptococcus viability loss, dose response, counter-screen for streptokinase expression inhibitor project, luminescence, BacTiterGlo (AID 1915); assay type: functional, organism-based;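 further: potency for reduction of bacterial viability or growth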
[4] = target: T1, Mitochondrial peptide methionine sulfoxide reductase (Bos taurus, UniProt P54149); assay type: functional;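 further: absorbance read-out, biochemical high-throughput dose-response screen for MsrA inhibitors, confirmatory; recombinant bovine MsrA coupled to E. coli TrxB with NADPH and selenocystamine; potency is for inhibitors of MsrA activity on DMSO substrate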
T1 sequence (P54149 whole entry): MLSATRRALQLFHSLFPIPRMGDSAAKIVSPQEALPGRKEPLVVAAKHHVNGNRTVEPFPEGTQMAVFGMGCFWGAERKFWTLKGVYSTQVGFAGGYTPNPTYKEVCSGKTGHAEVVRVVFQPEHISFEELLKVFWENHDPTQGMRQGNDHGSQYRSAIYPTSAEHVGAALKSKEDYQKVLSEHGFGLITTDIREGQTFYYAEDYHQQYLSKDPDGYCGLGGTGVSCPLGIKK

[5] = target: T2, Replicative DNA helicase DnaB (Mycobacterium tuberculosis, UniProt P9WMR3); assay: DnaB intein splicing inhibitors, dose response, biochemical, cell-free fluorescence (AID 449749); assay type: functional
T2 sequence (P9WMR3 whole entry): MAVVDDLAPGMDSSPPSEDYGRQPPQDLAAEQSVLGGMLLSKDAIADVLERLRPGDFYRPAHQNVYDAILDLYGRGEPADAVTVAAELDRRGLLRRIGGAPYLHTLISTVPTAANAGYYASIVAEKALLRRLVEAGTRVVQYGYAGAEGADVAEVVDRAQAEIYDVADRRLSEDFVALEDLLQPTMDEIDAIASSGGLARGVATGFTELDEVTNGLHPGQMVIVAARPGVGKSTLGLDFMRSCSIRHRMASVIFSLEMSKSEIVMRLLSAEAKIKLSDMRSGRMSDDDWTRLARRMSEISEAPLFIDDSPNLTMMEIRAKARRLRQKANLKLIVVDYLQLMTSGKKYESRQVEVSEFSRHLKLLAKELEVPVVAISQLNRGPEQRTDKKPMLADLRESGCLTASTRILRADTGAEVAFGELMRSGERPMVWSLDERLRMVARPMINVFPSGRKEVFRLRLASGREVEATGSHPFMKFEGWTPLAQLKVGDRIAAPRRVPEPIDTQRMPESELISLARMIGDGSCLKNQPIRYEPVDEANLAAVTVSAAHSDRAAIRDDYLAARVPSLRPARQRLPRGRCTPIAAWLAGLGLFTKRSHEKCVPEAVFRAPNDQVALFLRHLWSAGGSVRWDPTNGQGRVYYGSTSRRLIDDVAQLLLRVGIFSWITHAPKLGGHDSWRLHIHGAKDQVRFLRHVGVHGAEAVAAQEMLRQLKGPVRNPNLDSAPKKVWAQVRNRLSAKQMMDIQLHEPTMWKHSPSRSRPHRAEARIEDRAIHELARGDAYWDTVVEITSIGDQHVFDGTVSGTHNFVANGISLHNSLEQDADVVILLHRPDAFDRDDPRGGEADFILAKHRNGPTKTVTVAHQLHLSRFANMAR

[6] = tested on: Vero; assay: Vero cell cytotoxicity, cytotoxicity control for flavivirus capping enzyme inhibitors (AID 588742); assay type: functional; details: Chlorocebus sabaeus
[7] = target: T3, Streptokinase A (Streptococcus pyogenes serotype M1, UniProt P10520); assay: S. pyogenes streptokinase expression inhibitors, potency, dose response, plasminogen activation absorbance, OD405 (AID 1914); assay type: functional, Streptococcus pyogenes M1 GAS;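 further: secreted streptokinase activity via plasminogen activation per viability signal from cell pellet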
T3 sequence (P10520 whole entry): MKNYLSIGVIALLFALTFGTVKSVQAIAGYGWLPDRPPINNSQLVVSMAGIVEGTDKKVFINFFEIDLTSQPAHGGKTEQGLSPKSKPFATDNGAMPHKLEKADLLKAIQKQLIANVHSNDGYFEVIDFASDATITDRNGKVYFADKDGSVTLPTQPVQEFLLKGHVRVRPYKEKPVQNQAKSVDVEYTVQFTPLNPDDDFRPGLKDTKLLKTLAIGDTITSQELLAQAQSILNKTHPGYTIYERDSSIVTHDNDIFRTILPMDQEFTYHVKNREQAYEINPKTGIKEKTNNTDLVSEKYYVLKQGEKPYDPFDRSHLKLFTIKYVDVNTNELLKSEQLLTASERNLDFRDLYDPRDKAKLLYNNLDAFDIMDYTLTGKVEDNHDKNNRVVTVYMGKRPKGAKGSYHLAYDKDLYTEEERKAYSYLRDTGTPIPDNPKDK

[8] = target: Apoptotic protease-activating factor 1 (Homo sapiens, UniProt O14727); assay type: functional
Chain of Apoptotic protease-activating factor 1 (O14727 whole entry): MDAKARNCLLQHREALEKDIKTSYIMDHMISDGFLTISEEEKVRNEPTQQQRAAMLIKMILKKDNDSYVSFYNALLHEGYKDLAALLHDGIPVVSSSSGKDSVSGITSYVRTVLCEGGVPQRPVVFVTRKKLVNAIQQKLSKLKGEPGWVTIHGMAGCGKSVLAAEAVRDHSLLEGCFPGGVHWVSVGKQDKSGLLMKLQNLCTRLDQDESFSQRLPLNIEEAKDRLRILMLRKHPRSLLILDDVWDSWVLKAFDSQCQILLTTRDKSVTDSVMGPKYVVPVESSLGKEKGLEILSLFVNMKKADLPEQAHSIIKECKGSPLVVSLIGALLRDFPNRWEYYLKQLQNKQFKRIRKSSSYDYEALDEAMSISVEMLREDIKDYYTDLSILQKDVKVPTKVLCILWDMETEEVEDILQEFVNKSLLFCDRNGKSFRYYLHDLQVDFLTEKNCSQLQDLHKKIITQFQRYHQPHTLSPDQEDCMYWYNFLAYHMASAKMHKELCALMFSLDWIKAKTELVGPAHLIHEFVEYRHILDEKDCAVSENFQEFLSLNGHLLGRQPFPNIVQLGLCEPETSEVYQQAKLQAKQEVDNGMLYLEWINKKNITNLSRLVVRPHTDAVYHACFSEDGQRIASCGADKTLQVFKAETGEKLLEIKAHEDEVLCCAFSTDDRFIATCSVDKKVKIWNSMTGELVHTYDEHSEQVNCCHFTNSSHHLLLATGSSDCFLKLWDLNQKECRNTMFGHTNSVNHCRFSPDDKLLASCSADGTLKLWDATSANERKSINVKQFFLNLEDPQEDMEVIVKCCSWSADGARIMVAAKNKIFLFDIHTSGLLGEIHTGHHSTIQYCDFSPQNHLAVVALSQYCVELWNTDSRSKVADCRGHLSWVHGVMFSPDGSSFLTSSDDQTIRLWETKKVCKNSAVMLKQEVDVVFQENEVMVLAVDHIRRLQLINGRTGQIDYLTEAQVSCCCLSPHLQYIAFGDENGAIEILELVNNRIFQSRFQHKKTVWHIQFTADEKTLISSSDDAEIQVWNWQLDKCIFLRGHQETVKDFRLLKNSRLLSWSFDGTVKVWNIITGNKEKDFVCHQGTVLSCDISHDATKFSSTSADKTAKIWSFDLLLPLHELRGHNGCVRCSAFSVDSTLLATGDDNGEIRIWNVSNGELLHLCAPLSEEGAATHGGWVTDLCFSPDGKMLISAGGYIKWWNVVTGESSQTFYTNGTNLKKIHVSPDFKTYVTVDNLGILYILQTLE

[9] = target: T4, Protein RecA (Mycobacterium tuberculosis, UniProt P9WHJ3); assay: Fluorescence Cell-Free Homogeneous Dose Retest to Identify Inhibitors of RecA-Intein Splicing Activity. [Related pubchem assays (depositor defined):AID2097, AID2223, AID489010, AID492950]; assay type: functional
T4 sequence (P9WHJ3 whole entry): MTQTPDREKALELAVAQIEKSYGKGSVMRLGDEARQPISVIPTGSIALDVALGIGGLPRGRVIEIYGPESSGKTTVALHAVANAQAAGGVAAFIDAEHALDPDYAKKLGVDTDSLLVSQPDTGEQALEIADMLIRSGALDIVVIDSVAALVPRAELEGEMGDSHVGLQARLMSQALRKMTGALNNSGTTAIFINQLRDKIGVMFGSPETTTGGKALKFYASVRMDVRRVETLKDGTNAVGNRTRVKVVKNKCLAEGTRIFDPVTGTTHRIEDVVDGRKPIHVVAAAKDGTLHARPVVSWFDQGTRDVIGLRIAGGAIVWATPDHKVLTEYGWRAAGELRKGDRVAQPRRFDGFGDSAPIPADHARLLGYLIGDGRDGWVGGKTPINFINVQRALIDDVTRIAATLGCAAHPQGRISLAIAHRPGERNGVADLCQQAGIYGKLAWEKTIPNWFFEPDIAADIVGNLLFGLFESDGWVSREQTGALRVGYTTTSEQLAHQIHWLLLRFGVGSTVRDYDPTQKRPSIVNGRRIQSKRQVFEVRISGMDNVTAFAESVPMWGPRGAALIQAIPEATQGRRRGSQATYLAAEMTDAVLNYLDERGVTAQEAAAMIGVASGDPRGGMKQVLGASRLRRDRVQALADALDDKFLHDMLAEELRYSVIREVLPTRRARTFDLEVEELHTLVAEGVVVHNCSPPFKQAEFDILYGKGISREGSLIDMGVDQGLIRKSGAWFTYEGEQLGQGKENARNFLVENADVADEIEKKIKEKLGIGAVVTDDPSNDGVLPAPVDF

[10] = tested on: HEK293; assay: cells; details: Homo sapiens
[11] = tested on: HEK293; assay: cells; assay type: functional, cell-based; details: Homo sapiens
[12] = tested on: HEK293; assay: NOD2 signaling inhibitors in MDP-stimulated cells, cell-based, uHTS, luminescence (AID 2001); assay type: functional; details: Homo sapiens
[13] = tested on: HEK293; assay: cells; details: Homo sapiens; remark: listed apart in the source
[14] = tested on: HEK293; assay: NOD1 signaling inhibitors, primary screen, cell-based, luminescence, uHTS (AID 1578); assay type: functional; details: Homo sapiens
[15] = tested on: HEK293; assay: cells; assay type: functional, cell-based; details: Homo sapiens; remark: listed apart in the source
[16] = target: T5, Microphthalmia-associated transcription factor (Homo sapiens, UniProt O75030); assay: TRPM1 promoter luciferase signal decrease, dose response, MITF inhibitor project, cell-based, SK-MEL-5, cherry-picked, set 3 (AID 493073); assay type: functional
T5 sequence (O75030 whole entry): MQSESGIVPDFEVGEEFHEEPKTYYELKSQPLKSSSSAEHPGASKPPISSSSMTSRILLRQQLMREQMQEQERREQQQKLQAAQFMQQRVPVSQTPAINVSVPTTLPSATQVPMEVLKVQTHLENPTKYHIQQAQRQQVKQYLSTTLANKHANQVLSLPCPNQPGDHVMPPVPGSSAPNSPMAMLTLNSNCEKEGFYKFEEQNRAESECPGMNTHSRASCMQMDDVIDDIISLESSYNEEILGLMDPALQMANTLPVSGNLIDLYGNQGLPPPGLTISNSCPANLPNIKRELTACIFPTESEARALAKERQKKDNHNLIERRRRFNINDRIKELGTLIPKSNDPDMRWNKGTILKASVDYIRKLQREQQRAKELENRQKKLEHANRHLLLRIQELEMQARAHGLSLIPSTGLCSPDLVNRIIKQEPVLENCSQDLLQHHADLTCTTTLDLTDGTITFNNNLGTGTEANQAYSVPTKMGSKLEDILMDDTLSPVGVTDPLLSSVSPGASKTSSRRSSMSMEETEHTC

[17] = tested on: HEK293; assay: cytotoxicity in HEK293T NF-kB-Luc cells, SAR follow-up, cytotoxicity control for NF-kB activator project, cell-based, resazurin fluorescence (AID 493251); assay type: functional; details: Homo sapiens
[18] = tested on: Jurkat; assay: SAR Analysis of small molecule inhibitors of T-cell specific antigen receptor-induced NF-kB activation in a Jurkat cell line using a luminescence assay - Set 2. [Related pubchem assays (depositor defined):AID435003, AID435012, AID465]; assay type: functional, cell-based
[19] = tested on: HEK293; assay: SAR Analysis of small molecule inhibitors of T-cell specific antigen receptor-induced NF-kB activation in a HEK-293T cell line using a luminescence assay - Set 2. [Related pubchem assays (depositor defined):AID435003, AID435012, AID489026]; assay type: functional, cell-based
[20] = cells; assay type: functional
[21] = THP-1 cell cytotoxicity, dose response, cytotoxicity control for non-replicating M. tuberculosis project (AID 489025); assay type: functional
[22] = Vero E6 cell cytotoxicity, dose response, cytotoxicity control for non-replicating M. tuberculosis project, secondary assay (AID 492998); assay type: functional, VeroE6; details: Vero C1008
[23] = tested on: HEK293; assay: cells; assay type: functional, cell-based; details: Homo sapiens; remark: listed apart in the source
[24] = target: T6, Nuclear receptor subfamily 0 group B member 1 (Homo sapiens, UniProt P51843); assay: Luminescence-based cell-based high throughput dose response assay for inhibitors of the orphan nuclear receptor subfamily 0, group B, member 1 (DAX1; NR0B1). [Related pubchem assays (depositor defined):AID504766, AID504790]; assay type: functional
T6 sequence (P51843 whole entry): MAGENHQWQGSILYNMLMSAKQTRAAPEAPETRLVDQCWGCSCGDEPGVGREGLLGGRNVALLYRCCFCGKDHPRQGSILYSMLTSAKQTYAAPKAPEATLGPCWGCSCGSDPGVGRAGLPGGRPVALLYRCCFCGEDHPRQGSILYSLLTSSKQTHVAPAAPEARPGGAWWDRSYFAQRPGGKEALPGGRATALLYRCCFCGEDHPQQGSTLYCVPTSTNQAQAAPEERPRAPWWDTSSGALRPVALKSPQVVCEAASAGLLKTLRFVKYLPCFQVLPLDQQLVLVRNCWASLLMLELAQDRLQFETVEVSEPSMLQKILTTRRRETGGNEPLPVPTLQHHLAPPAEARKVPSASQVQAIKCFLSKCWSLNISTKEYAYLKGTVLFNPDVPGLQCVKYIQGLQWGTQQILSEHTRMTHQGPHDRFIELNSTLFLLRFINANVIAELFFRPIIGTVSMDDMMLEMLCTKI

[25] = target: Dual specificity tyrosine-phosphorylation-regulated kinase 1A (Rattus norvegicus, UniProt Q63470); assay type: biochemical, Homo sapiens

Chain of Beta-2 adrenergic receptor (P07550 whole entry): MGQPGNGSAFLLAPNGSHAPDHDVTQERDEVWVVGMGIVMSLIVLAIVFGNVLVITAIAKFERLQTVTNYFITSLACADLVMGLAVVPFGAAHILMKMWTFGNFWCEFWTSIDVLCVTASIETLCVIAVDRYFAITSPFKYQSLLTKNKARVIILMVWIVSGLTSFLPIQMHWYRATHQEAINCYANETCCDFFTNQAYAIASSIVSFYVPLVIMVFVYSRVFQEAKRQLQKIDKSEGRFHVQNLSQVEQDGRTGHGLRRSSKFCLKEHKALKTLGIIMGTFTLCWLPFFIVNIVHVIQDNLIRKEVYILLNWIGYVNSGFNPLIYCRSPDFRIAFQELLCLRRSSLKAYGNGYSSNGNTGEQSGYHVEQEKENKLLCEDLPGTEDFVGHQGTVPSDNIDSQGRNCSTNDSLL

Q: For Cn1c(CNc2nc(-c3ccccc3)cs2)nnc1SCC(=O)N1CCc2ccccc21, which EC50 [1] is on record?
A: 0.666 µM (active)

Q: Which EC50 [2] does the source give for Cc1[nH]c2ccccc2c1C(C#N)(C#N)C1C(=O)c2ccccc2C1=O here?
A: 8.49 µM (active)

Q: What about the EC50 [3] of the same compound?
A: > 150 µM (not active)

Q: What about the IC50 [4] of the same compound?
A: 12.1 µM (inactive)

Q: And the AC50 [5]?
A: > 120 µM (inactive)

Q: And the CC50 [6]?
A: > 40 µM (active)

Q: What about the EC50 [7] of the same compound?
A: > 150 µM (not active)

Q: And the IC50 [8]?
A: > 100 µM (inactive)

Q: What about the EC50 [9] of the same compound?
A: 0.297 µM (active)

Q: With O=C(CCl)Nc1cc(S(=O)(=O)N2CCCCCC2)ccc1Cl as the compound, how does the EC50 [10] read?
A: > 59.6 µM (inactive)

Q: What about the IC50 [11] of the same compound?
A: 7.86 µM (active)

Q: What about the IC50 [12] of the same compound?
A: > 20 µM (inactive)

Q: And the AC50 [5]?
A: 9.12 µM (active)

Q: What about the EC50 [13] of the same compound?
A: > 59.6 µM (inactive)

Q: What about the EC50 [9] of the same compound?
A: 2.03 µM (active)

Q: What about the EC50 [14] of the same compound?
A: 9.38 µM (active)

Q: And the IC50 [15]?
A: > 20 µM (inactive)

Q: With Cc1cccc(NC(=O)c2ccc([N+](=O)[O-])o2)c1C as the compound, how does the AC50 [16] read?
A: 14.8 µM (active)

Q: And the IC50 [17]?
A: > 80 µM (inactive)

Q: What about the IC50 ([18]; Homo sapiens, Jurkat) of the same compound?
A: 17.8 µM (active)

Q: And the IC50 ([18]; jurkat)?
A: 14.6 µM (active)

Q: What about the IC50 ([19]; Homo sapiens, HEK293) of the same compound?
A: 69.2 µM (inactive)

Q: What about the IC50 ([19]; hek293) of the same compound?
A: 63.1 µM (inactive)

Q: What about the IC50 [20] of the same compound?
A: 10.8 µM (active)

Q: And the CC50 [21]?
A: 20.5 µM (active)

Q: And the CC50 [22]?
A: 8.76 µM (active)

Q: Which results are given for O=C(NC1=NCCS1)c1cccc(Br)c1?
A: IC50 [23]: > 67.5 µM (inactive); IC50 [24]: > 67.5 µM (inactive)

Q: Which IC50 [23] does the source give for C(=N\Nc1nc2ccccc2[nH]1)/c1ccc2c(c1)OCO2 here?
A: > 67.5 µM (inactive)

Q: And the IC50 [24]?
A: > 67.5 µM (inactive)

Q: With c1cncc(-c2nc3ccccc3[nH]2)c1 as the compound, how does the AC50 [25] read?
A: > 120 µM (inactive)
